Molecules are shown by their SMILES. Entries after “also recorded” stand apart in the source; their conditions may differ.

2 molecules from patent publication US20080096971A1, “Treatment of Inflammatory Disorders and Pain” (priority 2004, published 2008) can be followed below.

In assay [1] the test system is Serum TNFα and IL-10 levels. Kind of assay: LPS Mouse Assay. The following applies: LPS 1 mg/kg i.p., serum 2 hours after challenge, 0.3 and 1 mg/kg p.o. for (S)-clenbuterol. It counts as in vivo, Balb C ByJ mice. How it is done: 7 week old Balb C ByJ mice (24-28 g) were administered, either by i.p. (5 ml/kg) or oral (10 ml/kg) administration, with vehicle or test article. 30 minutes later these animals were challenged with an intraperitoneal injection of 1 mg/kg LPS. 2 hours after LPS challenge blood samples were collected under light isoflurane anaesthesia into normal tubes by retro-orbital puncture. Samples were allowed to clot at room temperature and then spun at 6000 g for 3 min at 4° C. Serum was stored at −20° C. until use. Serum TNFα and IL-10 levels were analysed in duplicate by ELISA technique.

Assay [2] relates to Male Wistar rats (Freund's adjuvant). The experiment in a line: Rat Adjuvant Assay. It counts as in vivo. The conditions noted are these: oral once a day from day 11; (S)-clenbuterol at 0.3, 1 and 3 mg/kg/day. Here is the method: Male Wistar rats (180 to 200 g) were inoculated by subplantar injection of Freund's adjuvant (suspension of Mycobacterium butyricum in mineral oil) into the right paw at day 0. Sham inoculations were injected in the same way with 0.9% saline in matched Male Wistar rats. On day 2 animals were weighed. On days 3, 4, 7, 9 and 11 animals were weighed and both their right and left hind paws were measure by plethsymometry by submerging the paw up to the tibiotarsal joint. On day 11, rats with left hind paw volumes increased by 20% were selected for continuance in the study. On the same day continuance rats were administered test article orally (10 ml/kg in distilled water) and from then on once a day until the completion of the study. Left and right hind paw volumes were measured on days 11, 14, 15, 16, 18 and 21.

Assay [3] concerns male DBA1 mice (collagen II induced arthritis). Kind of assay: Collagen II-Induced Arthritis Assay. It counts as in vivo. The following applies: doses of 0.3, 1 and 3 mg/kg, from day 21. How it is done: Collagen II-Induced Arthritis Assay
6 to 8 week old male DBA1 mice were immunised with 0.1 ml intradermal (tail) injection of bovine type II collagen emulsified in Freund's complete adjuvant (day 0). At day 21 a booster collagen (intraperitoneal) inoculation was given, in PBS. Simultaneously, administration of test compound was given by the predetermined route of administration and delivery frequency. In addition, day 21 commenced observation of clinical signs, body weights and arthritis reaction scores. Arthritis score was assessed by the summation of all four paws scored for signs of arthritis development.

Assay [4] concerns male Wistar rats (carrageenan-injected right hind paw). The experiment in a line: Carrageenan Paw Assay. It is filed as in vivo. The conditions noted are these: doses of 0.3, 1 and 3 mg/kg oral; 1-5 hours after carrageenan. Here is the method: Fasted (18 hour) male Wistar rats (105-130 g) were weighed and a basal mercury plethysmometer reading was taken of the right hind paw by submerging the paw in the mercury up to the tibiotarsal joint. Subsequently, vehicles, reference items and test articles were administered by oral gavage (10 ml/kg). Half an hour after treatment 0.1 ml of 2% carrageenan in 0.9% saline was injected into the subplanatar area of the right hind paw. The right paw was measured again with the plethysmometer at 1, 2, 3, 4 and 5 hours after carrageenan administration.

The test system of assay [5] is Guinea-pig trachea ring preparations (beta2 agonism). The experiment in a line: Beta2 Agonism Functional Assay (carbachol-contracted trachea rings). It is filed as cell-based. The following applies: for beta2 agonist activity (in words): guinea-pig trachea, formoterol positive control. How it is done: Beta2 Agonism Functional Assay
Guinea-pig trachea ring preparations were suspended in Kreb's solution containing indomethacin. After 15 minutes stabilisation, the preparations were repeated contracted using carbachol and simultaneously treated with increasing cumulative doses test compounds (0.1 nM to 0.1 μM). Beta2 agonism for each test compound was determined by its dose-dependant inhibition of carbachol-stimulated tracheal muscle twitch.

Consider `CC(C)(C)NC[C@@H](O)c1cc(Cl)c(N)c(Cl)c1` [(S)-Clenbuterol, (S)-(+)-clenbuterol], for which the “immunomodulatory activity (serum TNFα and IL-10 after LPS)” value in assay [1] is recorded as “significant activity”; in assay [1] (listed as (S)-clenbuterol), “profound immunomodulatory profile; also recorded: less than (R)-clenbuterol”. Moreover, in assay [2], the “anti-inflammatory effect (hind paw volume)” value was “clear but non-dose-related anti-inflammatory effect”. In assay [3], the “anti-inflammatory effect (arthritis score)” value is given as “clear but inverse dose-related anti-inflammatory effect”. Further, in assay [4], the “anti-inflammatory activity (paw volume)” value is “strong and dose-dependent anti-inflammatory activity”. In addition, in assay [5] (from −10 to −7 log M, cumulative doses), the “inhibition of carbachol-stimulated tracheal muscle twitch” value is “up to 75%”. Also, the “beta2 agonist activity (in words)” value in assay [5] was “a little lower than that caused by formoterol”.

Regarding `CC(C)(C)NC[C@H](O)c1cc(Cl)c(N)c(Cl)c1` [(R)-Clenbuterol], the “immunomodulatory activity (serum TNFα and IL-10 after LPS)” value in assay [1] was “significant activity”. For the same molecule, the “beta2 agonist activity (in words)” value is reported as “little such beta2 agonist activity” in assay [5] and “distinct beta2 agonism” in assay [5] (listed as (R)-clenbuterol).
